Target: 5-HT2A (Homo sapiens, UniProt P28223)
Experiment: PDSP radioligand binding

Chain of 5-HT2A (P28223 whole entry, species assumed): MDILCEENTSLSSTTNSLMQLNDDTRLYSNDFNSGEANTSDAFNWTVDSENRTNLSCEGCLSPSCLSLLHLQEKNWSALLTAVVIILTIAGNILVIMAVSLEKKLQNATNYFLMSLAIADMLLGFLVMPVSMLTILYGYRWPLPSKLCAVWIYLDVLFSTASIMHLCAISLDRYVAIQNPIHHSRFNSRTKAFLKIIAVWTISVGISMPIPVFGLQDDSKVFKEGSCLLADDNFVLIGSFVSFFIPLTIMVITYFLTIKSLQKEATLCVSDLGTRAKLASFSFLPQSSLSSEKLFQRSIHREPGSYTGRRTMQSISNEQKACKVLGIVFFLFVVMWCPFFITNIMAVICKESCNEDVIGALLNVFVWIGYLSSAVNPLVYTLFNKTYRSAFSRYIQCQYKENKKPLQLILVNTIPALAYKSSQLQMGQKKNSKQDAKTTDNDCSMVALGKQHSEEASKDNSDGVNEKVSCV

COc1ccc(N=Nc2ccc3[nH]cc(CCN(C)C)c3c2)cc1 [2h]
Ki: 225 nM
